Assay results reported in the supplement of paper PMC10307832.

Legend:
Experiment in all cases: relative viability (nuclei count vs DMSO), 5 days (fraction); higher = more cells survive
[1] = compound: OCc1c[nH]c2ccccc12 [Indole-3-carbinol] + O=C(c1cc(Cc2n[nH]c(=O)c3ccccc23)ccc1F)N1CCN(C(=O)C2CC2)CC1 [Olaparib] (partner 8 µM)
In short: (§1)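 Lung cancer cell lines were pin-tool dosed in 1536-well plates on the day after seeding, with either a lone drug or a fixed anchor-drug dose plus five library-drug doses (not always all listed) in √10 steps. Nuclei were counted on 4× images after 5 days. Relative viability is the ratio of treated-well to vehicle-well nuclei counts, with each value a median of duplicate plates.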

[2] = compound: OCc1c[nH]c2ccccc12 [Indole-3-carbinol] + C[C@@H](Oc1cc(-c2cnn(C3CCNCC3)c2)cnc1N)c1c(Cl)ccc(F)c1Cl [Crizotinib] (partner 1 µM)
In short: as §1

[3] = compound: OCc1c[nH]c2ccccc12 [Indole-3-carbinol] + Nc1nc2[nH]cc(CCc3ccc(C(=O)N[C@@H](CCC(=O)O)C(=O)O)cc3)c2c(=O)[nH]1 [Pemetrexed] (partner 0.2 µM)
In short: as §1

[4] = compound: OCc1c[nH]c2ccccc12 [Indole-3-carbinol] + CC(=O)Nc1cccc(-n2c(=O)n(C3CC3)c(=O)c3c(Nc4ccc(I)cc4F)n(C)c(=O)c(C)c32)c1 [Trametinib] (partner 0.02 µM)
In short: as §1

[5] = compound: OCc1c[nH]c2ccccc12 [Indole-3-carbinol] + C[C@]1(O)C[C@@H](c2nc(-c3ccc4ccc(-c5ccccc5)nc4c3)c3c(N)nccn32)C1 [Linsitinib] (partner 1 µM)
In short: as §1

| Cell Line | relative viability ([1]; first compound 0.253 µM) | relative viability ([1]; first compound 0.8 µM) | relative viability ([1]; first compound 2.53 µM) | relative viability ([1]; first compound 8 µM) | relative viability ([2]; first compound 0.253 µM) | relative viability ([2]; first compound 0.8 µM) | relative viability ([2]; first compound 2.53 µM) | relative viability ([2]; first compound 8 µM) | relative viability ([3]; first compound 0.253 µM) | relative viability ([3]; first compound 0.8 µM) | relative viability ([3]; first compound 2.53 µM) | relative viability ([3]; first compound 8 µM) | relative viability ([4]; first compound 0.253 µM) | relative viability ([4]; first compound 0.8 µM) | relative viability ([4]; first compound 2.53 µM) | relative viability ([4]; first compound 8 µM) | relative viability ([5]; first compound 0.253 µM) | relative viability ([5]; first compound 0.8 µM) | relative viability ([5]; first compound 2.53 µM) | relative viability ([5]; first compound 8 µM) |
| --- | --- | --- | --- | --- | --- | --- | --- | --- | --- | --- | --- | --- | --- | --- | --- | --- | --- | --- | --- | --- |
| NCI-H2085 | 0.9 | 0.844 | 0.773 | 0.691 | 0.897 | 0.738 | 0.832 | 0.786 | 0.965 | 0.927 | 0.932 | 0.758 | 0.884 | 0.514 | 0.56 | 0.622 | 0.828 | 0.897 | 0.982 | 0.779 |
| NCI-H2087 | 0.575 | 0.631 | 0.625 | 0.541 | 1.01 | 0.997 | 1.1 | 0.88 | 0.706 | 0.703 | 0.705 | 0.63 | 0.179 | 0.23 | 0.193 | 0.201 | 1.07 | 1.04 | 1.01 | 0.915 |
| NCI-H2126 | 0.859 | 1 | 0.934 | 0.87 | 1.01 | 1.05 | 1.02 | 1.03 | 0.664 | 0.746 | 0.624 | 0.651 | 0.573 | 0.577 | 0.541 | 0.509 | 0.694 | 0.715 | 0.68 | 0.702 |
| NCI-H2228 | 0.659 | 0.707 | 0.532 | 1.01 | 0.582 | 0.461 | 0.567 | 0.454 | 0.368 | 0.335 | 0.334 | 0.344 | 0.576 | 0.614 | 0.501 | 0.581 | 0.513 | 0.934 | 0.96 | 0.604 |
| NCI-H2347 | 0.624 | 0.582 | 0.634 | 0.549 | 0.747 | 0.607 | 0.706 | 0.671 | 0.425 | 0.415 | 0.437 | 0.41 | 0.422 | 0.276 | 0.296 | 0.29 | 0.986 | 1.06 | 1.04 | 0.793 |
| NCI-H2405 | 0.907 | 0.889 | 0.908 | 0.823 | 0.875 | 0.825 | 0.901 | 0.78 | 1.15 | 1.04 | 0.972 | 1.03 | 0.634 | 0.615 | 0.672 | 0.703 | 0.945 | 0.805 | 0.903 | 0.89 |
| NCI-H3122 | 0.65 | 0.612 | 0.495 | 0.538 | 0.289 | 0.293 | 0.281 | 0.292 | 0.195 | 0.21 | 0.203 | 0.203 | 0.229 | 0.255 | 0.234 | 0.248 | 1.02 | 1.03 | 1.07 | 1.04 |
| PC-3 [JPC-3] | 1.17 | 1.29 | 1.11 | 1.03 | 0.946 | 1.08 | 0.997 | 0.969 | 1.17 | 1.16 | 0.958 | 1.15 | 0.749 | 0.719 | 0.678 | 0.667 | 0.948 | 0.985 | 0.922 | 0.887 |
